# From patent US20030180957A1, “Target and method” (Sense Proteomic Limited, priority 2001, published 2003)
# Target: Neutravidin (Gallus gallus, UniProt P02701)
# Test: surface capture of BSA-biotin on Neutravidin coated MALDI target, competition by free biotin
# Format: binding
# Conditions: MALDI target coated with PLL-PEG-biotin and Neutravidin; MALDI mass spectrum readout
# Text: The specificity of the surface capture was confirmed with the following experiments. BSA-Biotin was deposited on the MALDI target without Neutravidin or without the Biotin layer. BSA-Biotin was not detected in either case. Furthermore, binding of BSA-biotin to the Neutravidin coated surface is inhibited by the presence of free biotin. The database search results for BSA-biotin are presented in the appendix A.
# MALDI targets are cleaned before use with acetone, acetonitrile, double distilled water and dried under nitrogen. Each position on the MALDI target is coated with 500 nanoliter 1%PLL-PEG-2%Biotin solution dissolved in desalting buffer. The target is then placed in a humid chamber for one hour at room temperature. Unbound PLL-PEG is rinsed with […] washing buffer followed by two washes with […] washing buffer. The target surface is dried under nitrogen. The PLL-PEG coating is then overlaid with 500 nanoliter of 0.5 mg/ml Neutravidin at each position of the array, incubated for one hour at RT in a humid chamber, rinsed with washing buffer, washed twice with […] washing buffer and dried under nitrogen. THE MALDI target is now ready to be used as a highly specific affinity capture surface. […]
# Chain of Neutravidin (P02701 25-152): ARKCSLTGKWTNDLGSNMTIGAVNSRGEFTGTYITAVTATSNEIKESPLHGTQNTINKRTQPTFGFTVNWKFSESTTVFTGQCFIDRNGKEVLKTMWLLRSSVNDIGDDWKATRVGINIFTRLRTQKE
smiles,measurement,value
O=C(O)CCCC[C@@H]1SC[C@@H]2NC(=O)N[C@@H]21 [biotin],binding of BSA-biotin to the Neutravidin coated surface in the presence of free biotin,inhibited
